According to patent US20100285959A1, “HERBICIDAL MIXTURES” (priority 2006, published 2010):

How the values were obtained:
velvetleaf (ABUTH) = experiment: Test 1 field trial, preemergence; format: in vivo, Abutilon theophrasti
Description: (§1) Corn seeds (hybrid ‘Pioneer 34N43’) were planted in mid spring season, 3.8 cm deep in a silt loam soil having 4.6% organic matter and a pH of 6. Plots were 10.7 m long by 1.5 m wide with rows spaced 76 cm apart. Seeds were spaced 18 cm apart within the rows. The field was managed using conventional tillage practices. […] Results are summarized in Table 1 and are the means of the three replicates. […] Colby's Equation (Colby, S. R. “Calculating Synergistic and Antagonistic Responses of Herbicide Combinations,” Weeds, 15(1), pp 20-22 (1967)) calculates the expected additive effect of herbicidal mixtures, and for two active ingredients is of the form:
(§2) Pa+b=Pa+Pb−(PaPb/100) • wherein Pa+b is the percentage effect of the mixture expected from additive contribution of the individual components, • Pa is the observed percentage effect of the first active ingredient at the same use rate as in the mixture, and • Pb is the observed percentage effect of the second active ingredient at the same use rate as in the mixture.

[1] = tested on: common lambsquarters (CHEAL); experiment: Test 1 field trial, preemergence; format: in vivo, Chenopodium album
Description: as §1, §2

[2] = tested on: Pennsylvania smartweed (POLPY); experiment: Test 1 field trial, preemergence; format: in vivo, Polygonum pensylvanicum
Description: as §1, §2

shepherd's purse (CAPBP) = experiment: Test 5 field trial, postemergence; format: in vivo, Capsella bursa-pastoris
Description: (§3) Corn seeds (hybrid ‘Pioneer 38H69’) were planted in mid spring season, 5.1 cm deep in a silty clay loam soil having 3% organic matter and a pH of 6.5. Plots were 9.1 m long by 3.0 m wide with rows spaced 76 cm apart. The field was managed using conventional tillage practices. […] All treatments included a surfactant except glufosinate treatments, both alone and in combination. […] Results are summarized in Table 5 and are the means of the three replicates.

large crabgrass (DIGSA) = experiment: Test 5 field trial, postemergence; format: in vivo, Digitaria sanguinalis
Description: as §3

field pennycress (THLAR) = experiment: Test 5 field trial, postemergence; format: in vivo, Thlaspi arvense
Description: as §3

corn (ZEAMD) = experiment: Test 6 field trial, postemergence; format: in vivo, Zea mays ssp. indentata
Description: (§4) Corn seeds (hybrid ‘Pioneer 35Y62’) were planted in mid spring season, 3.8 cm deep in a silt loam soil having 4% organic matter and a pH of 5.8. Plots were 10.7 m long by 1.5 m wide with rows spaced 76 cm apart. Seeds were spaced 18 cm apart within the rows. The field was managed using conventional tillage practices. […] All treatments included a surfactant except glufosinate treatments, both alone and in combination. […] Results are summarized in Table 6 and are the means of the three replicates.

[3] = tested on: Pennsylvania smartweed (POLPY); experiment: Test 6 field trial, postemergence; format: in vivo, Polygonum pensylvanicum
Description: as §4

[4] = tested on: common lambsquarters (CHEAL); experiment: Test 8 field trial, preemergence; format: in vivo, Chenopodium album
Description: (§5) Corn seeds (hybrid ‘Pioneer 31G96’) were planted in mid spring season, 3.8 cm deep in a clay loam soil having 2% organic matter and a pH of 6.6. Plots were 6.1 m long by 3.0 m wide with rows spaced 76 cm apart. Seeds were spaced 15 cm apart within the rows. The field was managed using conventional tillage practices. […] A few of the weed species could not be evaluated at every timing. […] Results are the means of the three replicates.

[5] = tested on: ivyleaf morningglory (IPOHE); experiment: Test 8 field trial, preemergence; format: in vivo, Ipomoea hederacea
Description: as §5

common ragweed (AMBEL) = experiment: Test 10 field trial, preemergence; format: in vivo, Ambrosia artemisiifolia; conditions: 28 DAA
Description: Corn seeds (hybrid ‘Pioneer 33P65 RR’) were planted in mid spring season, 2.5 cm deep in a silt loam soil. Plots were 9.1 m long by 3.0 m wide with rows spaced 76 cm apart. The field was managed using conventional tillage practices. […] Results are the means of the three replicates.

common blackjack (BIDPI) = experiment: Test 11 field trial, preemergence; format: in vivo, Bidens pilosa; set-up: scale not given here; conditions: alone or + atrazine 1500 or metolachlor 2500
Description: (§6) Corn seeds (hybrid ‘Pioneer 3041’) were planted in mid spring season, 5 cm deep in a clay soil having 2.6% organic matter and a pH of 5.6. Plots were 8 m long by 1.5 m wide with rows spaced 80 cm apart. Seeds were spaced 15 cm apart within the rows. The field was managed using conventional tillage practices. […] Treatments consisted of Compound 2 or
(§7) Goosegrass was not evaluated 16 or 91 days after application.

Surinam grass (BRADC) = experiment: Test 11 field trial, preemergence; format: in vivo, Brachiaria decumbens; set-up: scale not given here; conditions: alone or + atrazine 1500 or metolachlor 2500
Description: as §6, §7

[6] = 28 DAA, g a.i./ha: Cpd 2 50, S-Metolachlor 1870
[7] = 28 DAA, g a.i./ha: Cpd 2 100, Atrazine 1680, S-Metolachlor 1870
[8] = 28 DAA, g a.i./ha: Cpd 2 150, S-Metolachlor 1870
[9] = 56 DAA, g a.i./ha: Cpd 2 50, S-Metolachlor 1870
[10] = 56 DAA, g a.i./ha: Cpd 2 100, Atrazine 1680, S-Metolachlor 1870
[11] = 56 DAA, g a.i./ha: Cpd 2 150, S-Metolachlor 1870
[12] = 16 DAA, Cpd 2 30 g a.i./ha alone or with glufosinate 470 or glyphosate 1120
[13] = 16 DAA, Cpd 2 60 g a.i./ha alone or with atrazine 1120, glufosinate 470 or glyphosate 1120
[14] = 31 DAA, Cpd 2 30 g a.i./ha alone or with glufosinate 470 or glyphosate 1120
[15] = 31 DAA, Cpd 2 60 g a.i./ha alone or with atrazine 1120, glufosinate 470 or glyphosate 1120
[16] = 19 DAA, g a.i./ha: Cpd 2 50, S-Metolachlor 1870
[17] = 19 DAA, g a.i./ha: Cpd 2 100, Atrazine 1680, S-Metolachlor 1870
[18] = 19 DAA, g a.i./ha: Cpd 2 150, S-Metolachlor 1870
[19] = 16 DAA, Cpd 2/Cpd 1 at 62 g a.i./ha
[20] = 16 DAA, Cpd 2/Cpd 1 at 125 g a.i./ha
[21] = 30 DAA, Cpd 2/Cpd 1 at 62 g a.i./ha
[22] = 30 DAA, Cpd 2/Cpd 1 at 125 g a.i./ha
[23] = 44 DAA, Cpd 2/Cpd 1 at 62 g a.i./ha
[24] = 44 DAA, Cpd 2/Cpd 1 at 125 g a.i./ha
[25] = 62 DAA, Cpd 2/Cpd 1 at 62 g a.i./ha
[26] = 62 DAA, Cpd 2/Cpd 1 at 125 g a.i./ha
[27] = 91 DAA, Cpd 2/Cpd 1 at 62 g a.i./ha
[28] = 91 DAA, Cpd 2/Cpd 1 at 125 g a.i./ha
[29] = 16 DAA, atrazine 1120, glufosinate 470 or glyphosate 1120 g a.i./ha alone
[30] = 31 DAA, atrazine 1120, glufosinate 470 or glyphosate 1120 g a.i./ha alone

With `COC(=O)c1nc(C2CC2)nc(N)c1Cl` [Compound 2, methyl 6-amino-5-chloro-2-cyclopropyl-4-pyrimidinecarboxylate] the “ABUTH Obs” value (velvetleaf (ABUTH); [6]) was 0, the “ABUTH Obs” value (velvetleaf (ABUTH); [7]) was 0 and the “ABUTH Obs” value (velvetleaf (ABUTH); [8]) was 0. For the same molecule, the “ABUTH Obs” value (velvetleaf (ABUTH); [9]) was 0, the “ABUTH Obs” value (velvetleaf (ABUTH); [10]) was 0 and the “ABUTH Obs” value (velvetleaf (ABUTH); [11]) was 10. For the same molecule, the “CHEAL Obs” value [1, 6] was 0, the “CHEAL Obs” value [1, 7] was 7 and the “CHEAL Obs” value [1, 8] was 7. For the same molecule, the “CHEAL Obs” value [1, 9] was 7, the “CHEAL Obs” value [1, 10] was 55 and the “CHEAL Obs” value [1, 11] was 100. The “POLPY Obs” value [2, 6] was 0, the “POLPY Obs” value [2, 7] was 0 and the “POLPY Obs” value [2, 8] was 0. The “POLPY Obs” value [2, 9] was 0, the “POLPY Obs” value [2, 10] was 0 and the “POLPY Obs” value [2, 11] was 0. The “CAPBP Obs” value (shepherd's purse (CAPBP); [12]) was 25%, the “CAPBP Obs” value (shepherd's purse (CAPBP); [13]) was 28% and the “CAPBP Obs” value (shepherd's purse (CAPBP); [14]) was 0%. For the same molecule, the “CAPBP Obs” value (shepherd's purse (CAPBP); [15]) was 2%, the “DIGSA Obs” value (large crabgrass (DIGSA); [12]) was 0% and the “DIGSA Obs” value (large crabgrass (DIGSA); [13]) was 0%. The “DIGSA Obs” value (large crabgrass (DIGSA); [14]) was 0%, the “DIGSA Obs” value (large crabgrass (DIGSA); [15]) was 2% and the “THLAR Obs” value (field pennycress (THLAR); [12]) was 37%. The “THLAR Obs” value (field pennycress (THLAR); [13]) was 42%, the “THLAR Obs” value (field pennycress (THLAR); [14]) was 0% and the “THLAR Obs” value (field pennycress (THLAR); [15]) was 2%. For the same molecule, the “ZEAMD Obs” value (corn (ZEAMD); hybrid Pioneer 35Y62, corn (Zea mays ssp. indentata), in vivo, 14 days after application) was 0%, the “ZEAMD Obs” value (corn (ZEAMD); hybrid Pioneer 35Y62, corn (Zea mays ssp. indentata), in vivo, 28 days after application) was 0% and the “POLPY Obs” value ([3]; 14 DAA, 30 g a.i./ha) was 20%. For the same molecule, the “POLPY Obs” value ([3]; 14 DAA, 60 g a.i./ha) was 40%, the “POLPY Obs” value ([3]; 28 DAA, 30 g a.i./ha) was 20% and the “POLPY Obs” value ([3]; 28 DAA, 60 g a.i./ha) was 40%. The “CHEAL Obs” value [4, 16] was 75%, the “CHEAL Obs” value [4, 17] was 100% and the “CHEAL Obs” value [4, 18] was 100%. The “CHEAL Obs” value [4, 9] was 68%, the “CHEAL Obs” value [4, 10] was 100% and the “CHEAL Obs” value [4, 11] was 100%. The “IPOHE Obs” value [5, 16] was 58%, the “IPOHE Obs” value [5, 17] was 78% and the “IPOHE Obs” value [5, 18] was 83%. For the same molecule, the “IPOHE Obs” value ([5]; 29 DAA, g a.i./ha: Cpd 2 50, S-Metolachlor 1870) was 72%, the “IPOHE Obs” value ([5]; 29 DAA, g a.i./ha: Cpd 2 100, Atrazine 1680, S-Metolachlor 1870) was 97% and the “IPOHE Obs” value ([5]; 29 DAA, g a.i./ha: Cpd 2 150, S-Metolachlor 1870) was 96%. For the same molecule, the “IPOHE Obs” value [5, 9] was 82%, the “IPOHE Obs” value [5, 10] was 100% and the “IPOHE Obs” value [5, 11] was 100%. The “AMBEL Obs” value (common ragweed (AMBEL); g a.i./ha: Cpd 2 50, S-Metolachlor 1870) was 5%, the “AMBEL Obs” value (common ragweed (AMBEL); g a.i./ha: Cpd 2 100, Atrazine 1680, S-Metolachlor 1870) was 5% and the “AMBEL Obs” value (common ragweed (AMBEL); g a.i./ha: Cpd 2 150, S-Metolachlor 1870) was 20%. For the same molecule, the “BIDPI Obs” value (common blackjack (BIDPI); [19]) was 20, the “BIDPI Obs” value (common blackjack (BIDPI); [20]) was 60 and the “BIDPI Obs” value (common blackjack (BIDPI); [21]) was 20. The “BIDPI Obs” value (common blackjack (BIDPI); [22]) was 40, the “BIDPI Obs” value (common blackjack (BIDPI); [23]) was 20 and the “BIDPI Obs” value (common blackjack (BIDPI); [24]) was 60. For the same molecule, the “BIDPI Obs” value (common blackjack (BIDPI); [25]) was 0, the “BIDPI Obs” value (common blackjack (BIDPI); [26]) was 40 and the “BIDPI Obs” value (common blackjack (BIDPI); [27]) was 0. For the same molecule, the “BIDPI Obs” value (common blackjack (BIDPI); [28]) was 40, the “BRADC Obs” value (Surinam grass (BRADC); [19]) was 40 and the “BRADC Obs” value (Surinam grass (BRADC); [20]) was 60. The “BRADC Obs” value (Surinam grass (BRADC); [21]) was 40, the “BRADC Obs” value (Surinam grass (BRADC); [22]) was 70 and the “BRADC Obs” value (Surinam grass (BRADC); [23]) was 0. The “BRADC Obs” value (Surinam grass (BRADC); [24]) was 60, the “BRADC Obs” value (Surinam grass (BRADC); [25]) was 0 and the “BRADC Obs” value (Surinam grass (BRADC); [26]) was 0. The “BRADC Obs” value (Surinam grass (BRADC); [27]) was 0 and the “BRADC Obs” value (Surinam grass (BRADC); [28]) was 0.
With `O=C(O)CNCP(=O)(O)O` [Glyphosate] the “CAPBP Obs” value (shepherd's purse (CAPBP); [29]) was 98%, the “CAPBP Obs” value (shepherd's purse (CAPBP); [30]) was 100% and the “DIGSA Obs” value (large crabgrass (DIGSA); [29]) was 98%. For the same molecule, the “DIGSA Obs” value (large crabgrass (DIGSA); [30]) was 95%, the “THLAR Obs” value (field pennycress (THLAR); [29]) was 98% and the “THLAR Obs” value (field pennycress (THLAR); [30]) was 100%. The “ZEAMD Obs” value (corn (ZEAMD); 14 DAA, 1120 g a.i./ha) was 0%, the “ZEAMD Obs” value (corn (ZEAMD); 28 DAA, 1120 g a.i./ha) was 0% and the “POLPY Obs” value ([3]; 14 DAA, 1120 g a.i./ha) was 84%. The “POLPY Obs” value ([3]; 28 DAA, 1120 g a.i./ha) was 91%.
